In brackets after ≈: the same amount, converted by molar mass. Where two headings read alike, the source gives them in different places.
Columns and labels:
CYP2C19 = target: T1, CYP2C19 (Homo sapiens, UniProt P33261); experiment: CYP inhibition test (CYP2C19); assay type: in vitro ADME; conditions: pooled human liver microsomes; mephenytoin 4′-hydroxylation
T1 construct: The commercially available pooled human liver microsomes are used as an enzyme resource; from tissue; host or cells: pooled human liver microsomes
T1 sequence (P33261 whole entry): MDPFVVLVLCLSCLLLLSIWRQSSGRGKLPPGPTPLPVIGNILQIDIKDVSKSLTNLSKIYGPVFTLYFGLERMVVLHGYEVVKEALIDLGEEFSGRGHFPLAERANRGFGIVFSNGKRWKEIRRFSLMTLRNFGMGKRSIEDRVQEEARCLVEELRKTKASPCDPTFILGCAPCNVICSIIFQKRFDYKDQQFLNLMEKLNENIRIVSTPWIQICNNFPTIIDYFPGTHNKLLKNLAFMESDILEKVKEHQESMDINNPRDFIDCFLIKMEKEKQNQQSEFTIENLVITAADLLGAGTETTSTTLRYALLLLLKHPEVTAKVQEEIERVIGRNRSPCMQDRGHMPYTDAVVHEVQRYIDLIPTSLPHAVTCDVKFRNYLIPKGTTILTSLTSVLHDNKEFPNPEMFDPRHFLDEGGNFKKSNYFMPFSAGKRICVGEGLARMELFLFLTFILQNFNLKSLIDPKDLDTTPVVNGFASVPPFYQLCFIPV
Excerpt: (§1) The CYP inhibition test is a test to assess the inhibitory effect of a compound of the present invention towards typical substrate metabolism reactions on CYP enzymes in human liver microsomes. The marker reactions on human main five CYP enzymes (CYP1A2, 2C9, 2C19, 2D6, and 3A4) are used as follows: 7-ethoxyresorufin O-deethylation (CYP1A2), tolbutamide methyl-hydroxylation (CYP2C9), mephenytoin 4′-hydroxylation (CYP2C19), dextromethorphan O-demethylation (CYP2D6), and terfenadine hydroxylation (CYP3A4). The commercially available pooled human liver microsomes are used as an enzyme resource.
(§2) The reaction conditions were as follows: substrate, 0.5 μmol/L ethoxyresorufin (CYP1A2), 100 μmol/L tolbutamide (CYP2C9), 50 μmol/L, S-mephenytoin (CYP2C19), 5 μmol/L dextromethorphan (CYP2D6), 1 μmol/L terfenadine (CYP3A4): reaction time, 15 minutes: reaction temperature, 37° C.; enzyme, pooled human liver microsomes 0.2 mg protein/mL; concentrations of the compound of the present invention, 1, 5, 10, 20 μmol/L (four points).
(§3) Five kinds of substrates, human liver microsomes, and a compound solution of the present invention in […] Hepes buffer were added to a 96-well plate at the composition as described above as a reaction solution. NADPH as a cofactor was added to this 96-well plate in order to initiate metabolism reactions. After the incubation at 37° C.for […], a methanol/acetonitrile=1/1 (v/v) solution was added to stop the reaction. After the centrifugation at 3000 rpm for 15 minutes, resorufin (CYP1A2 metabolite) in the supernatant was quantified by a fluorescent plate reader, and hydroxytolbutamide (CYP2C9 metabolite), 4′-hydroxymephenytoin (CYP2C19 metabolite), dextrorphan (CYP2D6 metabolite), and terfenadine alcohol metabolite (CYP3A4 metabolite) in the supernatant were quantified by LC/MS/MS.
(§4) The sample adding DMSO to a reaction system instead of compound of the present invention solution was adopted as a control (100%) because DMSO was used as a solvent to dissolve a compound of the present invention. Remaining activity (%) was calculated at each concentration of a compound of the present invention, and IC50 value was calculated by reverse presumption by a logistic model using a concentration and an inhibition rate.

Metabolic stability test = assay type: in vitro ADME; conditions: human liver microsomes, 37° C., 30 minutes, NADPH
Procedure: Using a commercially available pooled human liver microsomes, a compound of the present invention was reacted for a constant time, a remaining rate was calculated by comparing a reacted sample and an unreacted sample, thereby, a degree of metabolism in liver was assessed.
A reaction was performed (oxidative reaction) at 37° C. for 0 minute or 30 minutes in the presence of 1 mmol/L NADPH in 0.2 mL of a buffer (60 mmol/L Tris-HCl pH 7.4, 150 mmol/L potassium chloride, 10 mmol/L magnesium chloride) containing 0.5 mg protein/mL of human liver microsomes. After the reaction, 50 μL of the reaction solution was added to 100 μL of a methanol/acetonltrile=1/1 (v/v), mixed and centrifuged at 3000 rpm for 15 minutes. The compound of the present invention in the supernatant was quantified by LC/MS/MS or solid phase extraction (SPE)/MS, and a remaining amount of the compound of the present invention after the reaction area calculated, letting a compound amount at 0 minute reaction time to be 100%.

Solubility test = assay type: physicochemical; conditions: for solubility kinetic at 1 h: kinetic from dmso stock; for solubility kinetic at 16 h: solubility in JP 2nd fluid B, 1% DMSO, *2: shaken for 1 hour at room temperature
Procedure: A 10 mmol/L solution of the compound was prepared with DMSO, and 2 μL of the compound of the present invention solution was added, respectively, to 198 μL of JP 1st fluid (water was added to 2.0 g of sodium chloride and 7.0 ml, of hydrochloric acid to reach 1000 mL) and JP 2nd fluid (See Table 4). The mixture was left standing for 16 hours at 25° C. or shaken for 1 hour at ruom temperature, and the mixture was vacuum-filtered. The […] was ten or one hundred-fold diluted with metbanol/water=1/1 (v/v) or MeCN/MeOH/H2O(=1/1/2), and the compound concent ration in the filtrate was measured with LC/MS or solid phase extraction (SPE)/MS by the absolute calibration method.

CYP1A2 = target: T2, CYP1A2 (Homo sapiens, UniProt P05177); experiment: CYP inhibition test (CYP1A2); assay type: in vitro ADME; conditions: pooled human liver microsomes; 7-ethoxyresorufin O-deethylation
T2 construct: The commercially available pooled human liver microsomes are used as an enzyme resource; from tissue; host or cells: pooled human liver microsomes
T2 sequence (P05177 1-516): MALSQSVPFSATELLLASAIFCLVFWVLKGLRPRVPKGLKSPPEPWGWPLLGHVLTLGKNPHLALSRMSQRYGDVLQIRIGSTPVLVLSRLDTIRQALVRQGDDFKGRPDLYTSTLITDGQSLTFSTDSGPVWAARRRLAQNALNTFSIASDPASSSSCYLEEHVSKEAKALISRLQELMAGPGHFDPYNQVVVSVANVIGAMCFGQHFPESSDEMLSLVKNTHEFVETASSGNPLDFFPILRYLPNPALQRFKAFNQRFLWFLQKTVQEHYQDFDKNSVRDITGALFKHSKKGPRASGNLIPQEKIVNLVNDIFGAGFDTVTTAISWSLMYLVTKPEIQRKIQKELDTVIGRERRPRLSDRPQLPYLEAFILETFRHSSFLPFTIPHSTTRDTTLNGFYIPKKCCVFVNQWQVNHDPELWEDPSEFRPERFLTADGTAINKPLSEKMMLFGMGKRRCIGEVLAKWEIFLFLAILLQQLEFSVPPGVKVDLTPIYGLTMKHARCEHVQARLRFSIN
Excerpt: as §1, §2, §3, §4

CYP3A4 = target: T3, CYP3A4 (Homo sapiens, UniProt P08684); experiment: CYP inhibition test (CYP3A4); assay type: in vitro ADME; conditions: pooled human liver microsomes; terfenadine hydroxylation
T3 construct: The commercially available pooled human liver microsomes are used as an enzyme resource; from tissue; host or cells: pooled human liver microsomes
T3 sequence (P08684 whole entry): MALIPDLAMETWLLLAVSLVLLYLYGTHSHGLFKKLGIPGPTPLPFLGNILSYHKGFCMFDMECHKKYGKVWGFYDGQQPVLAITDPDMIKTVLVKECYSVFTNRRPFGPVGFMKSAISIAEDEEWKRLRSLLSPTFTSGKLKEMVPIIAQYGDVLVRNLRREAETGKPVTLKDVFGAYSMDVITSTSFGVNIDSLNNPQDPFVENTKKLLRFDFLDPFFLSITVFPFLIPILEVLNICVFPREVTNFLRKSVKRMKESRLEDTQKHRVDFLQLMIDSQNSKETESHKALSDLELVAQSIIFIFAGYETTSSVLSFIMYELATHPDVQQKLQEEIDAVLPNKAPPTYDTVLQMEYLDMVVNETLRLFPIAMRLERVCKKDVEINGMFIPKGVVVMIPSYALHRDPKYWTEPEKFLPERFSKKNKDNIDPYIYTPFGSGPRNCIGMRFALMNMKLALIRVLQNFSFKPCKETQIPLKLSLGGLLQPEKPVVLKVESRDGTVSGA
Excerpt: as §1, §2, §3, §4

Recombinant human BACE1 = target: T4, Recombinant human BACE1 (Homo sapiens, UniProt P56817); experiment: Assay of BACE1 inhibitory activity: 384-well; assay type: biochemical; conditions: Assay format 384-well
T4 construct: purchased R&D Systems
T4 sequence (P56817 46-501): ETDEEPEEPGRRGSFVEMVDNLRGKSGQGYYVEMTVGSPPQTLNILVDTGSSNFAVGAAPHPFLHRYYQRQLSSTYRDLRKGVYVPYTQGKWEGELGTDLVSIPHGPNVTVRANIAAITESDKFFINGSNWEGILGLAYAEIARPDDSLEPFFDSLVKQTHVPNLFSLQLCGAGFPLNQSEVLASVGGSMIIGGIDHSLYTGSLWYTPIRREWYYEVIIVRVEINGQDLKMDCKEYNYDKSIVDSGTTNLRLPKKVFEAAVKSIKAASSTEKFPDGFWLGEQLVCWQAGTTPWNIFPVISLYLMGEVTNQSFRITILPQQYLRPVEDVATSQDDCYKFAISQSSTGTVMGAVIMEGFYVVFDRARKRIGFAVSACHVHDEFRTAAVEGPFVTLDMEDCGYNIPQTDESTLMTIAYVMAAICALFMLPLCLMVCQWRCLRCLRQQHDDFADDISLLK
Procedure: 5 μL of substrate peptide solution (Biotin-XSEVNLDAEFRHDSGC-Eu: X=ε-amino-n-capronic acid, Eu=Europium eryplate) was added to each well of 384-well plate (a black plate: Corning), and after addition of 0.1 μl of the compound of the present invention (DMSO solution) and 5 μl of Recombinant human BACE1 (R&D Systems), the reaction mixture was incubated at 25° C. for 2 hours. The substrate peptide was synthesized by reacting Cryptate TBPCOOH mono SMP (CIS bio international) with Biotin-XSEVNLDAEFRHDSGC (Peptide Institute, Inc.).
After the incubation for reaction, 10 μl of 8.0 μg/ml Streptavidin-XL665 (CIS bio International) dissolved in phosphate buffer (150 mmol/L K2HPO4-KH2PO4, pH 7.0, 0.008% Triton X-100, 0.8 mol/L KF) was added to each well and left stand at 25° C. for 30 minutes.

[1] = system: Aβ production in neuroblastoma SH-SY5Y cells (SH/APPwt); experiment: β-amyloid (Aβ) production inhibitory effect in cell: 384-well; assay type: cell-based; conditions: Homo sapiens, Assay format 384-well
Procedure: Neuroblastoma SH-SY5Y cells (SH/APPwt) with human wild-type β-APT excessively expressed therein were prepared at 4×10^5 cells/mL, and 50 μl portions thereof were inoculated into each well of a 384-well culture plate (Corning) added 0.5 μl of the test compound of the present invention (DMSO solution). The final DMSO concentration was 1%, and the amount of the cell culture was 50 μl. After the incubation was performed for 21 hours from the cell seeding, 5 μl of the culture supernatant was collected from each fraction. The amount of the Aβ in each fraction was measured.
The Aβ amount was measured as follows. 5 μl of a homogeneous time resolved fluoresrenee (HTRF) measurement reagent (Amyloid β1-40 peptide; CIS bio international) and 5 μl of the culture supernatant were put into a 384′well plate (a black plate: Corning) and mixed with each other, and then left standing overnight at 4° C. while the light was shielded. Then, the fluorescence intensity (620 nm and 665 nm) was measured with EnViston (Perkin Elmer life sciences).

[2] = target: T5, human ether-a-go-go related gene (hERG) channel (Homo sapiens, UniProt Q12809); experiment: hERG test; assay type: cell-based; conditions: % inhibition of IKr tail peak current at 3 uM; CHO cells expressing hERG
T5 construct: expressed in transfected cells; host or cells: CHO cells
T5 sequence (Q12809 whole entry): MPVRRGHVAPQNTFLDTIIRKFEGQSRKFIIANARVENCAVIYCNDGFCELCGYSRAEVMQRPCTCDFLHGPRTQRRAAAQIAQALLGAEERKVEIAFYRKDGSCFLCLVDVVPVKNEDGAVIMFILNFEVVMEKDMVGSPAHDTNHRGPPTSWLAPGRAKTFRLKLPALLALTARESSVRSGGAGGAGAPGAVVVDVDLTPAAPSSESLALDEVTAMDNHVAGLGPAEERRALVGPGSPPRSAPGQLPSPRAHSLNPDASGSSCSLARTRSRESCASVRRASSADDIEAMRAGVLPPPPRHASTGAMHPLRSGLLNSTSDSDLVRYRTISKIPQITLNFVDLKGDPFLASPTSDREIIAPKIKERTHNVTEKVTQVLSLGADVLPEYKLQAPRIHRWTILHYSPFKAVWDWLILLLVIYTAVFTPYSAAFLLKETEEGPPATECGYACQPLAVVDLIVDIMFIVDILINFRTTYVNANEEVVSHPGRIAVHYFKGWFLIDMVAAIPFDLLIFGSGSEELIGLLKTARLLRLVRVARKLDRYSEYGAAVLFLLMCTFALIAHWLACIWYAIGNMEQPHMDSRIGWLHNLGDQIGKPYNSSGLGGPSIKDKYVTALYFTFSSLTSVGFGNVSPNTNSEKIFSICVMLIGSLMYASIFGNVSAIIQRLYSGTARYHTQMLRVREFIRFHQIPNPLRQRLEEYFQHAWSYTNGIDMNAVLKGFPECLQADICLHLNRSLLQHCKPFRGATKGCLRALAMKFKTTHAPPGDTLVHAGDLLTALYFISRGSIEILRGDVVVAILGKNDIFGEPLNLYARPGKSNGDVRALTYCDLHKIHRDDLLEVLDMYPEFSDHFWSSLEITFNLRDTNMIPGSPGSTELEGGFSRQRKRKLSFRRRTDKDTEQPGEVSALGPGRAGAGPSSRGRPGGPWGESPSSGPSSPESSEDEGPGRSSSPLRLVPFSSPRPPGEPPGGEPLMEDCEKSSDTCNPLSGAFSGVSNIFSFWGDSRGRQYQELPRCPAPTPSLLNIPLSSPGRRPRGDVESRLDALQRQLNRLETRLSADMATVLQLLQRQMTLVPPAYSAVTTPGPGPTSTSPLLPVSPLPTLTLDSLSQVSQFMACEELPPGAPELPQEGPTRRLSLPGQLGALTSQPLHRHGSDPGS
Excerpt: For the purpose of assessing risk of an electrocardiogram QT interval prolongation, effects on delayed rectifier K+ current (IKr), which plays an important role in the ventricular repolarization process of the compound of the present invention, was studied using CHO cells expressing human ether-a-go-go related gene (hERG) channel.
A cell was retained at a membrane potential of […] by whole cell patch clamp method using an automated patch clamp system (QPatch:Sophion Bioscience A/S). After application of leak potential at −50 mV, IKr induced by depolarization pulse stimulation at +20 mV for 2 seconds and, further, repolarization pulse stimulation at −50 mV for 2 seconds was recorded.

CYP2C9 = target: T6, CYP2C9 (Homo sapiens, UniProt P11712); experiment: CYP inhibition test (CYP2C9); assay type: in vitro ADME; conditions: pooled human liver microsomes; tolbutamide methyl-hydroxylation
T6 construct: The commercially available pooled human liver microsomes are used as an enzyme resource; from tissue; host or cells: pooled human liver microsomes
T6 sequence (P11712 whole entry): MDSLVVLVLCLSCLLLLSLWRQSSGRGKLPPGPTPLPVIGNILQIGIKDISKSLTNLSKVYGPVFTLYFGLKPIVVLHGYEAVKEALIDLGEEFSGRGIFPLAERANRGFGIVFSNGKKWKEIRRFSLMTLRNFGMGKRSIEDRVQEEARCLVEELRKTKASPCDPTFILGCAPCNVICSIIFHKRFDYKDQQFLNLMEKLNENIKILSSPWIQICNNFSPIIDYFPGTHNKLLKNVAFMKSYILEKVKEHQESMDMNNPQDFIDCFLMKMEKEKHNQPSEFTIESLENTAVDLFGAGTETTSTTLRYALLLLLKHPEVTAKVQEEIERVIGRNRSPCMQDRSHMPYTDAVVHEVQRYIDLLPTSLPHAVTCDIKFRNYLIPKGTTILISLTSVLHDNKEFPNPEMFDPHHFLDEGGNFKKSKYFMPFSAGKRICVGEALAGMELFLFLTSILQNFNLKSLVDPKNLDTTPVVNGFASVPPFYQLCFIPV
Excerpt: as §1, §2, §3, §4

[3] = JP 1st fluid, pH 1.2, simulated gastric fluid, read-out: JP1
[4] = JP 2nd fluid B, pH 6.8, aqueous buffer, read-out: JP2_μM

| Structure (SMILES) | IC50 (CYP2C19) [nM] | remaining % (Metabolic stability test) [%] | solubility kinetic at 1 h (Solubility test; [3]) [µM] | solubility kinetic at 16 h (Solubility test; read-out: JP2_μM) [µM] | IC50 (CYP1A2) [nM] | IC50 (CYP3A4) [nM] | IC50 (Recombinant human BACE1) [nM] | IC50 [1] [nM] | solubility kinetic at 1 h (Solubility test; [4]) [µM] | hERG_3 uM_% [2] [%] | IC50 (CYP2C9) [nM] |
| --- | --- | --- | --- | --- | --- | --- | --- | --- | --- | --- | --- |
| COc1ccc(C(=O)Nc2ccc(F)c([C@@]3(C)N=C(N)O[C@H](C4(F)CC4)[C@@H]3F)c2)nc1 [Compound I-100] | ≥ 20000 | 60.2 | > 50 | >50.0 | ≥ 20000 | ≥ 20000 | 26 | 13 | – | – | – |
| CCOc1cnc(C(=O)Nc2ccc(F)c([C@@]3(C)N=C(N)S[C@H](C)[C@@H]3F)c2)cn1 [Compound I-84] | ≥ 20000 | – | > 50 | – | ≥ 20000 | – | 12.9 | 2.3 | 49.4 (≈ 20.8 µg/mL) | 28.8 | – |
| CC[C@H]1SC(N)=N[C@](C)(c2cc(NC(=O)c3ccc(C#N)cn3)ccc2F)[C@H]1F [Compound I-69] | – | 77.6 | > 50 | >50 | – | ≥ 10000 | 9.24 | 0.42 | – | – | – |
| COc1ccc(C(=O)Nc2ccc(F)c([C@@]3(C)N=C(N)O[C@H](C(F)(F)C4CC4)[C@@H]3F)c2)nc1 [Compound I-93] | ≥ 20000 | 82.2 | > 50 | – | ≥ 20000 | – | 44.5 | 28 | 6.1 (≈ 2.85 µg/mL) | – | – |
| C[C@]1(c2cc(NC(=O)c3cnc(OCF)cn3)ccc2F)N=C(N)SCC12CC(F)(F)C2 [Compound I-56] | ≥ 20000 | – | > 50 | >50 | ≥ 20000 | ≥ 10000 | – | 0.53 | – | 37.6 | ≥ 20000 |
| C[C@]1(c2cc(NC(=O)c3cnc(OCF)cn3)ccc2F)N=C(N)O[C@H](C2(F)CC2)[C@@H]1F [Compound I-94] | – | – | – | – | – | – | – | 3.5 | – | – | – |

Source: patent publication US20170073337A1, “DIHYDROTHIAZINE AND DIHYDROOXAZINE DERIVATIVES HAVING BACE1 INHIBITORY ACTIVITY” (Shionogi & Co., Ltd., priority 2014, published 2017)
